Drawing on patent publication US20150175599A1, “FAAH Inhibitors” (Ironwood Pharmaceuticals, Inc., priority 2010, published 2015), this text covers IC50 for 18 compounds.

Bounds are passed on as bounds.

The assay deals with T1, FAAH (Rattus norvegicus, UniProt P97612).
T1 construct: For the assay of FAAH activity in rat brain membrane (RBM) homogenates; tissue Charles River (animals); host or cells: rat whole brain, membrane fraction
T1 sequence (P97612 1-579): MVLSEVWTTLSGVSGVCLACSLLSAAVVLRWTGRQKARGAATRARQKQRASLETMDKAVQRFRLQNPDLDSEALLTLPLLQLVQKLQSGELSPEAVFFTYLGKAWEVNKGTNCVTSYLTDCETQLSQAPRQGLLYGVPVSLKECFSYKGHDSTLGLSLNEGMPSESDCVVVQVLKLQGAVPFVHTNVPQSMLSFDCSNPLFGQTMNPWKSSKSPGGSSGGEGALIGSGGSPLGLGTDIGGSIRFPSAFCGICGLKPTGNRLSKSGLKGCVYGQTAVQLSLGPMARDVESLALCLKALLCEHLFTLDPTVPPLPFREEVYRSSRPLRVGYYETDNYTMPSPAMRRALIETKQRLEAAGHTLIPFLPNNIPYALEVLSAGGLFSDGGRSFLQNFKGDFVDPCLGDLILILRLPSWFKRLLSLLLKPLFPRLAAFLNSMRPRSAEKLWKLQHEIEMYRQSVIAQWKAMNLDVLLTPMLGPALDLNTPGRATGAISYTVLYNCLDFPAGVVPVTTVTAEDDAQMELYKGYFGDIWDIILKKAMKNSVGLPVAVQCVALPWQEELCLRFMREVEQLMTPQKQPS
Kind of assay: FAAH inhibition, rat brain membrane homogenate assay. The format is biochemical. The settings on record: rat brain homogenate; average activity; read-out: Rat Brain Extract FAAH IC50. An outline of the steps:
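Membranes from female CD rat brain (Tris pH 7.4/EDTA/MgCl2 resuspension), 7 μg protein, incubated 10 min at 37 °C with [3H]anandamide plus […] unlabelled AEA, 1 mg/mL fatty acid-free BSA, Tris-HCl pH 6.5, 1 mM EDTA, 1% DMSO. [3H]ethanolamine separated by chloroform/methanol extraction or charcoal filtration, scintillation-counted; IC50 derived.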
Regarding `COc1cc(NC(=O)C(=O)c2c(C)n(Cc3ccc(Cl)cc3)c3cccnc23)ccn1` [Compound 3, 2-(1-(4-chlorobenzyl)-2-methyl-1H-pyrrolo[3,2-b]pyridin-3-yl)-N-(2-methoxypyridin-4-yl)-2-oxoacetamide], the IC50 (in general, the point on the concentration scale where inhibition reaches its midpoint) was below 100 nM.
The figure for `COc1cc(NC(=O)C(=O)c2c(C)n(Cc3ccc(Cl)cc3)c3ccc(C(=O)O)cc23)ccn1` [Compound 4, 1-(4-chlorobenzyl)-3-(2-(2-methoxypyridin-4-ylamino)-2-oxoacetyl)-2-methyl-1H-indole-5-carboxylic acid] is 1000 to 10000 nM.
With `COc1ccc2c(c1)c(C(=O)C(=O)Nc1ccnc(OC)c1)c(C)n2Cc1cccnc1` [Compound 78, 2-(5-methoxy-2-methyl-1-(pyridin-3-ylmethyl)-1H-indol-3-yl)-N-(2-methoxypyridin-4-yl)-2-oxoacetamide], the IC50 fell in the range of 100 to 1000 nM.
The value for `COc1ccc2c(c1)c(C(=O)C(=O)Nc1ccnc(OC)c1)c(C)n2Cc1ccc(Cl)cn1` [Compound 79, 2-(1-((5-chloropyridin-2-yl)methyl)-5-methoxy-2-methyl-1H-indol-3-yl)-N-(2-methoxypyridin-4-yl)-2-oxoacetamide] was below 100 nM.
As for `COc1cc(NC(=O)C(=O)c2c(C)n(Cc3ccc(Cl)cc3)c3cc(OC)c(Cl)cc23)ccn1` [Compound 80, 2-(5-chloro-1-(4-chlorobenzyl)-6-methoxy-2-methyl-1H-indol-3-yl)-N-(2-methoxypyridin-4-yl)-2-oxoacetamide], the IC50 was below 100 nM.
The figure for `COc1ccc2c(c1)c(C(=O)C(=O)Nc1ccnc(OC)c1)c(C)n2Cc1ncc(F)cc1F` [Compound 81, 2-(1-((3,5-difluoropyridin-2-yl)methyl)-5-methoxy-2-methyl-1H-indol-3-yl)-N-(2-methoxypyridin-4-yl)-2-oxoacetamide] is below 100 nM; for `COc1ccc2c(c1)c(C(=O)C(=O)Nc1ccnc(OC)c1)c(C)n2Cc1ncc(Cl)cc1Cl` [Compound 82, 2-(1-((3,5-dichloropyridin-2-yl)methyl)-5-methoxy-2-methyl-1H-indol-3-yl)-N-(2-methoxypyridin-4-yl)-2-oxoacetamide] it is below 100 nM.
For the compound `COc1ccc2c(c1)c(C(=O)C(=O)Nc1ccnc(OC)c1)c(C)n2Cc1ncccn1` [Compound 83, 2-(5-methoxy-2-methyl-1-(pyrimidin-2-ylmethyl)-1H-indol-3-yl)-N-(2-methoxypyridin-4-yl)-2-oxoacetamide], the IC50 was 1000 to 10000 nM.
For the compound `COc1ccc2c(c1)c(C(=O)C(=O)Nc1ccnc(OC)c1)c(C)n2Cc1ccc(C)cn1` [Compound 84, 2-(5-methoxy-2-methyl-1-((5-methylpyridin-2-yl)methyl)-1H-indol-3-yl)-N-(2-methoxypyridin-4-yl)-2-oxoacetamide], the half-inhibitory concentration (IC50) was below 100 nM.
Regarding `COc1cc(NC(=O)C(=O)c2c(C)n(Cc3ccc(F)cn3)c3ccc(C)cc23)ccn1` [Compound 85, 2-(1-((5-fluoropyridin-2-yl)methyl)-2,5-dimethyl-1H-indol-3-yl)-N-(2-methoxypyridin-4-yl)-2-oxoacetamide], the IC50 was below 100 nM.
The figure for `COc1ccc2c(c1)c(C(=O)C(=O)Nc1ccnc(OC)c1)c(C)n2Cc1ccc(Cl)nn1` [Compound 86, 2-(1-((6-chloropyridazin-3-yl)methyl)-5-methoxy-2-methyl-1H-indol-3-yl)-N-(2-methoxypyridin-4-yl)-2-oxoacetamide] is below 100 nM; for `COc1ccc2c(c1)c(C(=O)C(=O)Nc1ccnc(OC)c1)c(C)n2Cc1ncc(Cl)cc1F` [Compound 87, 2-(1-((5-chloro-3-fluoropyridin-2-yl)methyl)-5-methoxy-2-methyl-1H-indol-3-yl)-N-(2-methoxypyridin-4-yl)-2-oxoacetamide] it is below 100 nM.
As to `COc1cc(NC(=O)C(=O)c2c(C)n(Cc3ccc(Cl)cc3)c3cc(F)c(C)cc23)ccn1` [Compound 89, 2-(1-(4-chlorobenzyl)-6-fluoro-2,5-dimethyl-1H-indol-3-yl)-N-(2-methoxypyridin-4-yl)-2-oxoacetamide], the IC50 was below 100 nM.
The value for `COc1cc(NC(=O)C(=O)c2c(C)n(Cc3ccc(Cl)cn3)c3cc(F)c(C)cc23)ccn1` [Compound 90, 2-(1-((5-chloropyridin-2-yl)methyl)-6-fluoro-2,5-dimethyl-1H-indol-3-yl)-N-(2-methoxypyridin-4-yl)-2-oxoacetamide] was below 100 nM; that for `COc1cc(NC(=O)C(=O)c2c(C)n(Cc3ccc(Cl)cc3F)c3cc(F)c(OC)cc23)ccn1` [Compound 91, 2-(1-(4-chloro-2-fluorobenzyl)-6-fluoro-5-methoxy-2-methyl-1H-indol-3-yl)-N-(2-methoxypyridin-4-yl)-2-oxoacetamide] was below 100 nM; that for `COc1cc(NC(=O)C(=O)c2c(C)n(Cc3ccc(Cl)cc3Cl)c3cc(F)c(OC)cc23)ccn1` [Compound 92, 2-(1-(2,4-dichlorobenzyl)-6-fluoro-5-methoxy-2-methyl-1H-indol-3-yl)-N-(2-methoxypyridin-4-yl)-2-oxoacetamide] was below 100 nM.
For the compound `COc1cc(NC(=O)C(=O)c2c(C)n(Cc3ccc(Cl)cc3)c3cc(Cl)c(C)cc23)ccn1` [Compound 93, 2-(6-chloro-1-(4-chlorobenzyl)-2,5-dimethyl-1H-indol-3-yl)-N-(2-methoxypyridin-4-yl)-2-oxoacetamide], the IC50 was below 100 nM.
The figure for `COc1cc(NC(=O)C(=O)c2c(C)n(Cc3ccc(Cl)cn3)c3cc(Cl)c(C)cc23)ccn1` [Compound 94, 2-(6-chloro-1-((5-chloropyridin-2-yl)methyl)-2,5-dimethyl-1H-indol-3-yl)-N-(2-methoxypyridin-4-yl)-2-oxoacetamide] is below 100 nM.
